Measurements from patent US11033538B2, “Dosing regimens for the treatment of lysosomal storage diseases using pharmacological chaperones” (Amicus Therapeutics, Inc., priority 2007, dated 2021).

How the values were obtained:
α-GAL [1] = format: in vivo, human; details: first eleven patients treated at least 12 weeks; two regimens
Procedure: Eight patients in the study received an ascending dose of 25, 100, and then 250 mg b.i.d. over 6 weeks, followed by 50 mg/day for the remainder of the study.
For purposes of calculating the percentage of normal in the table, the level of α-GAL that is normal was derived by using the average of the levels of α-GAL in white blood cells of 15 healthy volunteers from the multiple-dose Phase I study.

GL-3 [2] = assay: Example 6, kidney biopsy GL-3 by mass spectroscopy; format: in vivo, human
Procedure: (§1) Four male patients received a single 150 mg Q.O.D for 12 weeks (Group B); while five male patients received 150 mg Q.O.D. for 24 weeks (Group C). Finally nine female patients were randomized to receive one of three dosages: 50, 150 or 250 mg Q.O.D for 12 weeks (Group D) (FIG. 8).
(§2) Kidney biopsies were performed at baseline, 12 weeks and 24 weeks post-treatment and evaluated for GL-3 deposits in various renal cells. GL-3 presence in the tissue was examined histologically as well as through the use of mass spectroscopy. Light microscopic analysis of kidney biopsies was performed, wherein the accumulation of GL-3 in the tissue was classified in a manner similar to the classification analysis performed in Kidney International, Vol. 62 (2002), pp. 1933-1946 which is hereby incorporated by reference. Cells were classified as containing no GL-3 accumulation (“0”); mild GL-3 accumulation (“1”); moderate GL-3 accumulation (“2”); or severe GL-3 accumulation (“3”).
(§3) Kidney GL-3 levels were assessed using histological and mass spectroscopic analysis. Kidney biopsies were examined in four of the “good” responders, two of the “moderate” responders, and two of the “non” responders. Accumulation of GL-3 was examined in three different kidney cell types: interstitial capillaries, distal tubules, and podocytes.

Fabry patients [3] = assay: Example 6, cardiac analysis; format: in vivo, human
Procedure: In addition to the biopsies described above, MRIs, electrocardiograms and echocardiograms with strain rate evaluations was performed at baseline and periodically throughout the study to assess cardiac morphology (e.g., left ventricular hyertrophy) and cardiac function (e.g., ejection fraction and conduction/rhythm abnormalities).

Fabry patients [4] = assay: Example 6, renal function (eGFR); format: in vivo, human; details: good responders
Procedure: Renal function was evaluated using glomerular filtration rate (GFR).
Renal function was measured using glomerular filtration rate (GFR) (MDRD equation was used to estimate GFR using serum creatinine adjusted for age, gender and race). Approximately half of all Fabry patients have an abnormally low GFR (<90 ml/min/1.73 m^2). […] As shown in FIG. 17A-B, the good responders maintained a mean eGFR within the normal eGFR range of 90-120 ml/min/1.73 m^2 during the entire treatment procedure (FIG. 17A), while the predicted mean eGFR level of untreated individual is projected to continue declining below 90 ml/min/1.73 m^2 (FIG. 17B).

GL-3 [5] = assay: Example 15, kidney interstitial capillary GL-3 inclusions; format: in vivo, human
Source text: The tertiary objectives were cardiac function, patient-reported outcomes, exploratory kidney analyses, and white blood cell α-galactosidase activity. Study completers were eligible to enroll in the open-label study—AT1001-041/NCT01458119—for up to 5 years.
Each patient underwent a baseline kidney biopsy, as well as repeat kidney biopsies at 6 and 12 months. The number of GL-3 inclusions per kidney interstitial capillary per patient at baseline, and at 6 and 12 months was quantitatively assessed in 300 capillaries by 3 independent pathologists blinded to treatment and visit. All values for each individual biopsy at a given time were averaged prior to statistical analysis.
Two other Stage 1 endpoints were assessed (modified-ITT population: randomized patients with paired baseline and month 6 biopsies; n=60): percent change in GL-3 inclusions per interstitial capillary, and percent of interstitial capillaries with zero GL-3 inclusions.

GL-3 [6] = assay: Example 6, kidney biopsy GL-3 histology; format: in vivo, human
Procedure: as §1, §2, §3

GL-3 [7] = assay: Example 12, GL-3 levels in tissues of hR301Q GLA Tg/KO mice; format: in vivo; details: 3-300 mg/kg/day, 4 weeks; p<0.05 vs. untreated
Procedure: Tissue lysates from skin, heart, and kidney were prepared and tested for GLA activity (using 4-MUG as substrate, expressed in nmol/mg protein/hr), GLA protein (using immunoblotting of […] tissue lysate with anti-human GLA antibody) and GL-3 levels (using LC-MS/MS, expressed in mg/g of tissue weight). […] Each bar represents the mean±SEM of n=7-8 mice/group. Each lane in the Western blots represents one mouse from each group.

α-GAL [8] = assay: Example 8, α-GAL activity in cell lines expressing Fabry missense mutations; format: cell-based
Source text: Cell lines were constructed to express one of 75 Fabry missense mutations. […] 20 of the 75 cell lines expressed a missense mutation corresponding to later-onset Fabry disease.

[9] = test system: patients with Fabry disease; assay: Example 15, safety analysis and adverse events; format: in vivo, human
Source text: Randomized patients receiving ≥1 dose were included in the safety analysis, which comprised vital signs, physical exams, electrocardiograms, clinical labs, and adverse events.

GL-3 [10] = assay: Example 11, GL-3 levels by LC-MS/MS in hR301Q GLA Tg/KO mice, daily vs less frequent dosing; format: in vivo; details: 300 mg/kg in drinking water, 4 weeks; skin, heart, kidney, plasma
Procedure: Lysates were prepared from skin, heart, kidney and plasma. GL-3 levels were measured by LC-MS/MS (expressed in mg/g tissue weight or mg/mL plasma). […] Each bar represents the mean±SEM of 10-16 mice/group.

[11] = open-label-extension, 6/57 patients

OC[C@H]1NC[C@H](O)[C@@H](O)[C@H]1O [DGJ, (2R,3S,4R,5S)-2-(hydroxymethyl) piperdine-3,4,5-triol]
patients with an increase in α-GAL activity (α-GAL [1]): 10 of the 11
expected good responders with kidney GL-3 decrease of greater than 10% (GL-3 [2]; female): two of the five
mean decrease in kidney GL-3 levels (mass spectoanalysis) (GL-3 [2]; female expected good responders): 20%
good responders with kidney GL-3 decrease of greater than 10% (GL-3 [2]; male good responders): 3
mean decrease in kidney GL-3 levels (mass spectroanalysis) (GL-3 [2]; male good responders): 28%
left ventricle mass (Fabry patients [3]; 2 good responders with abnormally high left ventricle mass, 48 weeks): no change in left ventricle mass
decrease in left ventricle mass (Fabry patients [3]; one good responder with abnormally high left ventricle mass, 12 weeks): 8%
ejection fraction following treatment (Fabry patients [3]; two of three good responders with abnormal ejection fraction before treatment): > 55%
mean eGFR maintained during the entire treatment (Fabry patients [4]): 90-120 ml/min/1.73 m^2
reduction in interstitial capillary GL-3 (±SEM) (GL-3 [5]; 6 months of DGJ, mITT-suitable, p=0.008 vs placebo): −0.250±0.103
patients achieving a response (>50% reduction in GL-3 inclusions per interstitial capillary) (GL-3 [5]; 6 months, ITT, 150 mg DGJ HCl every other day, 13 of 32, p=0.30 vs placebo): 41%
median change in interstitial capillary GL-3 from baseline (GL-3 [5]; 6 months, p=0.097 vs placebo): −40.8%
mean difference for the change in % of interstitial capillaries with zero GL-3 inclusions, in favor of DGJ (GL-3 [5]; 6 months, vs placebo, p=0.042): 7.3%
interstitial capillary GL-3 reduction after additional treatment (GL-3 [5]; additional 6 months of treatment): remained stable
reduction in interstitial capillary GL-3 (±SEM) (GL-3 [5]; at 12 months, patients switching from placebo to DGJ at 6 months, p=0.014): −0.330±0.152
treatment effect in interstitial capillary GL-3 (GL-3 [5]; patients with mutant α-galactosidase not suitable for DGJ therapy): did not show any treatment effect in interstitial capillary GL-3
distal tubule GL-3 (histology) (GL-3 [6]; male good responders): three of the good responders experienced a decrease in GL-3
interstitial capillary GL-3 (histology) (GL-3 [6]; male good responders): one patient displayed a decrease in interstitial capillary GL-3
overall GL-3 levels in kidney biopsies (GL-3 [6]; male good responders): two of the good responders showed a decrease in GL-3
podocyte GL-3 (histology) (GL-3 [6]; male good responders): all four good responders experienced no change
overall GL-3 levels in kidney biopsies (GL-3 [6]; male moderate responders): two patients showed a decrease in GL-3 levels
overall GL-3 levels in kidney biopsies (GL-3 [6]; male non-responders): One non-responders showed a decrease in GL-3 levels
GL-3 levels in skin, heart, kidney (GL-3 [7]): significant reduction in GL-3 levels
cell lines in which DGJ enhanced α-GAL activity (α-GAL [8]; 47 of the 75 cell lines): 63%
cell lines with increase in enzymatic activity (α-GAL [8]; classic Fabry mutations, 34 of 57 cell lines): 60%
cell lines with increase in α-GAL activity (α-GAL [8]; later-onset Fabry mutations, 19 of 20 cell lines): 95%
patients with serious adverse events ([9]; Stage 1, DGJ arm): 2 patients
nasopharyngitis frequency ([9]; Stage 1, DGJ, 6/34 patients): 18%
headache frequency ([9]; Stage 1, DGJ, 12/34 patients): 35%
procedural pain frequency ([9]; Stage 2, 7/63 patients, related to kidney biopsies): 11%
headache frequency ([9]; Stage 2, 9/63 patients): 14%
serious adverse events possibly related to DGJ ([9]; fatigue and paresthesia, same patient, months 12-24, resolved): Two serious adverse events were assessed as possibly related to DGJ
deaths ([9]; in vivo): No deaths were reported
discontinuation due to adverse events ([9]; in vivo): No adverse events led to DGJ discontinuation
severity of adverse events ([9]; in vivo): Most adverse events were mild or moderate in severity
vital sign, physical findings, laboratory and ECG parameters ([9]; in vivo): did not reveal any clinically relevant effect of DGJ
bronchitis frequency [9, 11]: 11%
headache frequency [9, 11]: 11%
proteinuria frequency ([9]; open-label-extension, 9/57 patients): 16%
patients whose 24-hour urine protein remained stable during DGJ treatment ([9]; patients with baseline proteinuria <300 mg/24-h): 23/28
GL-3 levels by LC-MS/MS, less frequent (4 days on/3 days off) vs daily dosing (GL-3 [10]): greater reduction in GL-3 levels
